# Assay results published in US20220160686A1, “MACROCYCLIC AZOLOPYRIDINE DERIVATIVES AS EED AND PRC2 MODULATORS” (Fulcrum Therapeutics, Inc., priority 2019, published 2022).
# Test system: human P-glycoprotein HEK cells (HEK-P-gp)
# Experiment: H3K27me3 immunocytochemistry assay in P-gp expressing HEK293T cells, with or without elacridar
# Type: cell-based
# Settings: not given
# Description: A plasmid encoding the human ABCB1 gene under the control of a CMV promoter was purchased from Origene (Cat #RC216080). The HEK293T cells were purchased from ATCC (Cat #CRL-3216) and were cultured for expansion in the recommended conditions. The HEK293T cells were transfected with 2 ug of the pCMV-ABCB1 plasmid using Lipofectamine 3000 following recommendations from the manufacturer (ThermoFisher Scientific, Cat #L3000008). After 24 h, cells were dissociated, and 5000 cells were seeded on a 10 cm tissue culture dish. On the next day, fresh media containing 5 nM Vinblastine (Sigma, Cat #V1377) was added, and media containing compound was replenished every 72 h. After surviving cells reached confluency, cells were passaged, and lines were maintained in the presence of 2.5 nM Vinblastine until further characterization.
# P-gp expressing HEK293T, HUDEP2, and Human Mobilized Peripheral Blood Primary CD34+ cells were cultured for use in an H3K27me3 immunocytochemistry assay. HUDEP2 and Human Mobilized Peripheral Blood Primary CD34+ cells were cultured for use in an HbF immunocytochemistry assay. P-gp expressing HEK293T cells were maintained and passaged every 3-4 days by plating 300,000 viable cells in a T-25 culture flask containing 6 mLs of 293 Passaging Media comprised of DMEM (ThermoFisher #10566016), 10% fetal bovine serum (ThermoFisher #A3160502), 1% penicillin-streptomycin (ThermoFisher #15140122), and 2.5 nM Vinblastine (Sigma #V1377). To evaluate the inhibitory effect of the compounds of the present disclosure and their brain penetrant properties via P-gp mediated efflux, the H3K27me3 immunocytochemistry assay was conducted in the presence or absence of 250 nM of the P-gp inhibitor, elacridar. Poor brain penetrant compounds were expected to show higher potencies in the presence of Elacridar. However, brain penetrant compounds would show similar potencies irrespective of whether Elacridar is present or not. In these experiments plates without elacridar were seeded with P-gp expressing HEK293T cells at 1000 viable cells per well in a poly-d-lysine coated 384-well plate (Corning Cat #356697) in 45 μL of 293 Assay Media comprised of DMEM (ThermoFisher #10566016), 10% fetal bovine serum (ThermoFisher #A3160502), 1% penicillin-streptomycin (ThermoFisher #15140122). A replicate set of plates were seeded under the same conditions with 45 μL of 293 Assay Media supplemented with 250 nM of Elacridar to inhibit P-gp activity. Compounds were serially diluted at 10× concentration in 293 Media, and 5 μL transferred to their respective wells on both sets of plates for a total volume of 50 μL per well. The compound treated HEK293T cells were allowed to incubate for 4 days at 37° C., 85% relative humidity, and 5% CO2 before proceeding to ICC Fix and Stain protocol.
# The Fix and Stain Protocol was the same for HEK293T, HUDEP2, and Primary CD34+ cell assays except the specific primary and secondary antibodies used for detection. Following 4 days of compound treatment, the respective plates were washed once with 25 μL of PBS (ThermoFisher #10010023) and fixed with 25 μL of 4% paraformaldehyde (ThermoFisher #28908) for 10 minutes at room temperature. The plates were then washed three times with 25 μL of PBS. Subsequent to that, the cells were permeabilized and blocked for 1 hour at room temperature in 25 μL of Perm/Block buffer comprised of IX PBS, 1% bovine serum albumin (ThermoFisher #A3294), 10% fetal bovine serum (ThermoFisher #A3160502), 0.3M glycine (Sigma #G7126), and 0.1% tween-20 (Sigma #P7949). This was followed by additional washing (three times) of the plates with 25 μL of 0.1% tween in PBS.
# For the H3K27me3 assay, the cells were incubated overnight at 4° C. with 25 μL of H3K27me3 Primary Antibody (Cell Signaling #9733) diluted 1:200 in 0.1% tween-20 in PBS. […]
row,Compound,IC50 [nM]
1,"COc1cc(C)c(-c2cc3c(n4cnnc24)NCc2c(F)ccc4c2[C@@H](CO4)CO3)cn1 [Example 68, (S)-12-fluoro-4-(6-methoxy-4-methylpyridin-3-yl)-7a,8,13,14-tetrahydro-7H-[1,2,4]triazolo[4′,3′:1,6]pyrido[3,2-b]benzofuro[4,3-fg][1,4]oxazonine]",50 to 100
2,"Cn1cc(-c2cc3c(n4cnnc24)NCc2c(F)ccc4c2[C@@H](CO4)CO3)ccc1=O [Example 69, (S)-5-(12-fluoro-7a,8,13,14-tetrahydro-7H-[1,2,4]triazolo[4′,3′:1,6]pyrido[3,2-b]benzofuro[4,3-fg][1,4]oxazonin-4-yl)-1-methylpyridin-2(1H)-one]",< 25
3,"COc1nccc(C)c1-c1cc2c(n3cnnc13)NCc1c(F)ccc3c1[C@@H](CO3)CO2 [Example 71, (S)-12-fluoro-4-(2-methoxy-4-methylpyridin-3-yl)-7a,8,13,14-tetrahydro-7H-[1,2,4]triazolo[4′,3′:1,6]pyrido[3,2-b]benzofuro[4,3-fg][1,4]oxazonine]",< 25
4,"Fc1ccc2c3c1CNc1c(cc(-c4ccnn4CC(F)(F)F)c4nncn14)OC[C@@H]3CO2 [Example 72, (S)-12-fluoro-4-(1-(2,2,2-trifluoroethyl)-1H-pyrazol-5-yl)-7a,8,13,14-tetrahydro-7H-[1,2,4]triazolo[4′,3′:1,6]pyrido[3,2-b]benzofuro[4,3-fg][1,4]oxazonine]",50 to 100
5,"Cc1nc(-c2cc3c(n4cnnc24)NCc2c(F)ccc4c2[C@@H](CO4)CO3)ccc1C(F)F [Example 77, (S)-4-(5-(difluoromethyl)-6-methylpyridin-2-yl)-12-fluoro-7a,8,13,14-tetrahydro-7H-[1,2,4]triazolo[4′,3′:1,6]pyrido[3,2-b]benzofuro[4,3-fg][1,4]oxazonine]",100 to 500
6,"Cc1nccc(-c2cc3c(n4cnnc24)NCc2c(F)ccc4c2[C@@H](CO4)CO3)c1F [Example 86, (S)-12-fluoro-4-(3-fluoro-2-methylpyridin-4-yl)-7a,8,13,14-tetrahydro-7H-[1,2,4]triazolo[4′,3′:1,6]pyrido[3,2-b]benzofuro[4,3-fg][1,4]oxazonine]",25 to 50
7,"CN(C)c1cc(-c2cc3c(n4cnnc24)NCc2c(F)ccc4c2[C@@H](CO4)CO3)n(C)n1 [Example 91, (S)-5-(12-fluoro-7a,8,13,14-tetrahydro-7H-[1,2,4]triazolo[4′,3′:1,6]pyrido[3,2-b]benzofuro[4,3-fg][1,4]oxazonin-4-yl)-N,N,1-trimethyl-1H-pyrazol-3-amine]",100 to 500
8,"Cn1cnc(-c2cc3c(n4cnnc24)NCc2c(F)ccc4c2[C@@H](CO4)CO3)c1 [Example 94, (S)-12-fluoro-4-(1-methyl-1H-imidazol-4-yl)-7a,8,13,14-tetrahydro-7H-[1,2,4]triazolo[4′,3′:1,6]pyrido[3,2-b]benzofuro[4,3-fg][1,4]oxazonine]",25 to 50
9,"Cc1cc(C)c(-c2cc3c(n4cnnc24)NCc2c(F)ccc4c2[C@@H](CO4)CO3)cn1 [Example 96, (S)-4-(4,6-dimethylpyridin-3-yl)-12-fluoro-7a,8,13,14-tetrahydro-7H-[1,2,4]triazolo[4′,3′:1,6]pyrido[3,2-b]benzofuro[4,3-fg][1,4]oxazonine]",50 to 100
10,"CN(C)C(=O)c1ccc(-c2cc3c(n4cnnc24)NCc2c(F)ccc4c2[C@@H](CO4)CO3)cn1 [Example 152, (S)-5-(12-fluoro-7a,8,13,14-tetrahydro-7H-[1,2,4]triazolo[4′,3′:1,6]pyrido[3,2-b]benzofuro[4,3-fg][1,4]oxazonin-4-yl)-N,N-dimethylpicolinamide]",< 25
11,"(S)-1-(4-(12-fluoro-7a,8,13,14-tetrahydro-7H-[1,2,4]triazolo[4′,3′:1,6]pyrido[3,2-b]benzofuro[4,3-fg][1,4]oxazonin-4-yl)piperidin-1-yl)ethan-1-one [Compound 9]",> 500
12,"(S)-12-fluoro-4-(2-methylpyridin-3-yl)-7a,8,13,14-tetrahydro-7H-[1,2,4]triazolo[4′,3′:1,6]pyrido[3,2-b]benzofuro[4,3-fg][1,4]oxazonine [Compound 8]",< 25

# Same assay, conditions: Homo sapiens, HEK293, 96 h, without elacridar; 4 days compound treatment; read-out: IC50, inhibitory activity on human P-glycoprotein HEK cells (HEK-P-gp)
row,Compound,IC50 [nM]
1,"COC(=O)N1CCC(c2cc3c(n4cnnc24)NCc2c(F)cccc2COC3)CC1 [Compound 181, methyl 4-(12-fluoro-6,8,13,14-tetrahydro-[1,2,4]triazolo[4′,3′:1,6]pyrido[3,2-c]benzo[g][1,5]oxazonin-4-yl)piperidine-1-carboxylate]",> 500
2,"Cc1ncc(-c2cc3c(n4cnnc24)NCc2c(F)cccc2COC3)c(C)n1 [Compound 182, 4-(2,4-dimethylpyrimidin-5-yl)-12-fluoro-6,8,13,14-tetrahydro-[1,2,4]triazolo[4′,3′:1,6]pyrido[3,2-c]benzo[g][1,5]oxazonine]",> 500
3,"Cn1cc(Cc2cc3c(n4cnnc24)NCc2c(F)cccc2COC3)cn1 [Compound 183, 12-fluoro-4-((1-methyl-1H-pyrazol-4-yl)methyl)-6,8,13,14-tetrahydro-[1,2,4]triazolo[4′,3′:1,6]pyrido[3,2-c]benzo[g][1,5]oxazonine]",> 500

# Same assay, conditions: Homo sapiens, HEK293, with 250 nM elacridar; 4 days compound treatment; read-out: IC50, inhibitory activity on human P-glycoprotein HEK cells (HEK-P-gp) pretreated with elacridar
row,Compound,IC50 [nM]
1,"COC(=O)N1CCC(c2cc3c(n4cnnc24)NCc2c(F)cccc2COC3)CC1 [Compound 181, methyl 4-(12-fluoro-6,8,13,14-tetrahydro-[1,2,4]triazolo[4′,3′:1,6]pyrido[3,2-c]benzo[g][1,5]oxazonin-4-yl)piperidine-1-carboxylate]",> 500
2,"Cc1ncc(-c2cc3c(n4cnnc24)NCc2c(F)cccc2COC3)c(C)n1 [Compound 182, 4-(2,4-dimethylpyrimidin-5-yl)-12-fluoro-6,8,13,14-tetrahydro-[1,2,4]triazolo[4′,3′:1,6]pyrido[3,2-c]benzo[g][1,5]oxazonine]",> 500
3,"Cn1cc(Cc2cc3c(n4cnnc24)NCc2c(F)cccc2COC3)cn1 [Compound 183, 12-fluoro-4-((1-methyl-1H-pyrazol-4-yl)methyl)-6,8,13,14-tetrahydro-[1,2,4]triazolo[4′,3′:1,6]pyrido[3,2-c]benzo[g][1,5]oxazonine]",> 500
